Assays:
Set-up in all cases: scale not given: the % may be the effect or the level left
[1] = target: T1, Discoidin domain-containing receptor 2 (Homo sapiens) (UniProt Q16832); experiment: Inhibition of human DDR2 assessed as enzyme activity at 1 uM using KKSRGDYMTMQIG as substrate preincubated for 20 mins followed by [gamma-33P]-ATP addition and measured after 120 mins by radiometric Hot-SpotSM Kinase assay relative to control
T1 sequence (whole entry): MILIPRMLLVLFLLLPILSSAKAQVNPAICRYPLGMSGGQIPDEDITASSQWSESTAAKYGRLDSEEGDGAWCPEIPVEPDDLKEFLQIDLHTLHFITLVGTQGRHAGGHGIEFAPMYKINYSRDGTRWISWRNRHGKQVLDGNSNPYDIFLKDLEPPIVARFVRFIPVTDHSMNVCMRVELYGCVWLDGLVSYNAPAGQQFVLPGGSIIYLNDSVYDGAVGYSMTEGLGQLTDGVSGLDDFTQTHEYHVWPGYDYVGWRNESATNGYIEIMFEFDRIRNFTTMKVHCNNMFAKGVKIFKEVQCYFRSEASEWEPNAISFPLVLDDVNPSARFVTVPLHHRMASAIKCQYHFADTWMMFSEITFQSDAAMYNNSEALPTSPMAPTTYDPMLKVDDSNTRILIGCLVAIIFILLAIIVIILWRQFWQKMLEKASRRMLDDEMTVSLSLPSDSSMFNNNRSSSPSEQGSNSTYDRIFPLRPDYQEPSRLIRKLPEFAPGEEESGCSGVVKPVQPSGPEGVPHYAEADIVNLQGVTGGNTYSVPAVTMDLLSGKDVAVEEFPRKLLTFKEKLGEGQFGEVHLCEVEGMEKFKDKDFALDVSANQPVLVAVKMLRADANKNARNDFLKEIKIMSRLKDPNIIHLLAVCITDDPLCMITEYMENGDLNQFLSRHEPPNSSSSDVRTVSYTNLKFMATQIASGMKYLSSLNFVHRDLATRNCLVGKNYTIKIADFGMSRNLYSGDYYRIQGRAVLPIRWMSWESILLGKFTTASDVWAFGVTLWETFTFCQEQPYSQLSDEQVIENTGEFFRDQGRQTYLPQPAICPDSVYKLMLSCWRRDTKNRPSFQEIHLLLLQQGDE

[2] = target: T2, Tyrosine-protein kinase ITK/TSK (Homo sapiens) (UniProt Q08881); experiment: Inhibition of human ITK assessed as enzyme activity at 1 uM using myelin basic protein as substrate preincubated for 20 mins followed by [gamma-33P]-ATP addition and measured after 120 mins by radiometric Hot-SpotSM Kinase assay relative to control
T2 sequence (whole entry): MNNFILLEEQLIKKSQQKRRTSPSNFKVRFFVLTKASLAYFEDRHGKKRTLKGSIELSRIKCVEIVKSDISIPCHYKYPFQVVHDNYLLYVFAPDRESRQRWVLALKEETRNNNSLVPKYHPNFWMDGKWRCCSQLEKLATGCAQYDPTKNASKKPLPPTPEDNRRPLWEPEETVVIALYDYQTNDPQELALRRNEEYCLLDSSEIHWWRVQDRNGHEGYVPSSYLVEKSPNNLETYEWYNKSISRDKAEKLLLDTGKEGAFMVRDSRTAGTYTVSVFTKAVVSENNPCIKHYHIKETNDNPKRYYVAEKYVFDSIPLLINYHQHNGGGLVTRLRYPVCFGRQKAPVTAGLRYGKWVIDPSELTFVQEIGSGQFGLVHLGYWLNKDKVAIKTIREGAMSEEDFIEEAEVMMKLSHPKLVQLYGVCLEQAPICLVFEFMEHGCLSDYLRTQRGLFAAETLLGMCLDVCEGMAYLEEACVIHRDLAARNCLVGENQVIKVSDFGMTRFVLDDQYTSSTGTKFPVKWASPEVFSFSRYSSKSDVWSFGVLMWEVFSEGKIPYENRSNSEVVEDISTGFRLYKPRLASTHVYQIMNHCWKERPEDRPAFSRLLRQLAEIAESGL

[3] = target: Tyrosine-protein kinase JAK2 (Homo sapiens) (UniProt O60674); experiment: Inhibition of human JAK2 assessed as enzyme activity at 1 uM using poly[Glu:Tyr] (4:1) as substrate preincubated for 20 mins followed by [gamma-33P]-ATP addition and measured after 120 mins by radiometric Hot-SpotSM Kinase assay relative to control
Sequence of Tyrosine-protein kinase JAK2 (Homo sapiens) (O60674 whole entry): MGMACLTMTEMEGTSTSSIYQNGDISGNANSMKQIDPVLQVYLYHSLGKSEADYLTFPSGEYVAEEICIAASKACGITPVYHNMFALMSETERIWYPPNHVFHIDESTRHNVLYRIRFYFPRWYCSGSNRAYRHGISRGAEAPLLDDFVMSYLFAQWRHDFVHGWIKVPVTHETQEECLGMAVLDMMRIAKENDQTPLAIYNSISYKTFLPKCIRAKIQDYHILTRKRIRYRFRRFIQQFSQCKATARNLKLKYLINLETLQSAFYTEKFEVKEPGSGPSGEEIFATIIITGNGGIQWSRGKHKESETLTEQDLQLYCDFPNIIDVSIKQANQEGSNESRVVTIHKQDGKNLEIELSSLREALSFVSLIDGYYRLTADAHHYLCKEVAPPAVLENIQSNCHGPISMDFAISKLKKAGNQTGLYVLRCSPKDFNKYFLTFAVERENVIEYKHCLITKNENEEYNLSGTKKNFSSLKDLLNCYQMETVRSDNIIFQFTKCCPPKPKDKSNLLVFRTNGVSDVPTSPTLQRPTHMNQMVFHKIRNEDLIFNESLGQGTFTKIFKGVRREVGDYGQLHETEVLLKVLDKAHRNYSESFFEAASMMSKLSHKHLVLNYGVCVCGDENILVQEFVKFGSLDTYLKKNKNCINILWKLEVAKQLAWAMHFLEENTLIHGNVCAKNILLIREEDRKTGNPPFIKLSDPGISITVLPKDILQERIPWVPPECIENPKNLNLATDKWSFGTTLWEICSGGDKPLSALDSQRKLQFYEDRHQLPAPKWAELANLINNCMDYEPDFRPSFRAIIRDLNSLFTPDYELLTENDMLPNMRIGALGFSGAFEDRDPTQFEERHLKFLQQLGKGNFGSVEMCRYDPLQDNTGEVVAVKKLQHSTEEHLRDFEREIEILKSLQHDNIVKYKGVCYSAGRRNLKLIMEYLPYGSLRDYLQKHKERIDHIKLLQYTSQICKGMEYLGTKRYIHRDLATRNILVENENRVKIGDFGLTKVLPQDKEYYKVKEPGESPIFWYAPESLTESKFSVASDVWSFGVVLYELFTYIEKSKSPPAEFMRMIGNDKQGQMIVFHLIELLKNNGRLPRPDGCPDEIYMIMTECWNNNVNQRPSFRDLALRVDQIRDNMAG

[4] = target: Mitogen-activated protein kinase 10 (Homo sapiens) (UniProt P53779); experiment: Inhibition of human JNK3 assessed as enzyme activity at 1 uM using ATF2 as substrate preincubated for 20 mins followed by [gamma-33P]-ATP addition and measured after 120 mins by radiometric Hot-SpotSM Kinase assay relative to control
Sequence of Mitogen-activated protein kinase 10 (Homo sapiens) (P53779 whole entry): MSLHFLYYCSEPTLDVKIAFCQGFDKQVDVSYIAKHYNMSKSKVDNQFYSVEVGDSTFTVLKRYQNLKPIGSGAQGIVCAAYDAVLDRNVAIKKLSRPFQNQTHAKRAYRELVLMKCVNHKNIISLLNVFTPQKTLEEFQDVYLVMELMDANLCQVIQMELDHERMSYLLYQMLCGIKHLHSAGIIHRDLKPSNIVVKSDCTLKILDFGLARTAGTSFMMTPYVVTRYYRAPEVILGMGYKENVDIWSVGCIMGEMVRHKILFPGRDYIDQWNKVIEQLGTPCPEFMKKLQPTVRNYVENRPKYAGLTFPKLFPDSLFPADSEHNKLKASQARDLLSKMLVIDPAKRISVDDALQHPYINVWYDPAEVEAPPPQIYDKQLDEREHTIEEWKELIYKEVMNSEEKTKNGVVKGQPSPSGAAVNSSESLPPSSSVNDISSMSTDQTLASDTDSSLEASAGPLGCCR

[5] = target: T3, Serine/threonine-protein kinase TAO1 (Homo sapiens) (UniProt Q7L7X3); experiment: Inhibition of human TAOK1 assessed as enzyme activity at 1 uM using myelin basic protein as substrate preincubated for 20 mins followed by [gamma-33P]-ATP addition and measured after 120 mins by radiometric Hot-SpotSM Kinase assay relative to control
T3 sequence (whole entry): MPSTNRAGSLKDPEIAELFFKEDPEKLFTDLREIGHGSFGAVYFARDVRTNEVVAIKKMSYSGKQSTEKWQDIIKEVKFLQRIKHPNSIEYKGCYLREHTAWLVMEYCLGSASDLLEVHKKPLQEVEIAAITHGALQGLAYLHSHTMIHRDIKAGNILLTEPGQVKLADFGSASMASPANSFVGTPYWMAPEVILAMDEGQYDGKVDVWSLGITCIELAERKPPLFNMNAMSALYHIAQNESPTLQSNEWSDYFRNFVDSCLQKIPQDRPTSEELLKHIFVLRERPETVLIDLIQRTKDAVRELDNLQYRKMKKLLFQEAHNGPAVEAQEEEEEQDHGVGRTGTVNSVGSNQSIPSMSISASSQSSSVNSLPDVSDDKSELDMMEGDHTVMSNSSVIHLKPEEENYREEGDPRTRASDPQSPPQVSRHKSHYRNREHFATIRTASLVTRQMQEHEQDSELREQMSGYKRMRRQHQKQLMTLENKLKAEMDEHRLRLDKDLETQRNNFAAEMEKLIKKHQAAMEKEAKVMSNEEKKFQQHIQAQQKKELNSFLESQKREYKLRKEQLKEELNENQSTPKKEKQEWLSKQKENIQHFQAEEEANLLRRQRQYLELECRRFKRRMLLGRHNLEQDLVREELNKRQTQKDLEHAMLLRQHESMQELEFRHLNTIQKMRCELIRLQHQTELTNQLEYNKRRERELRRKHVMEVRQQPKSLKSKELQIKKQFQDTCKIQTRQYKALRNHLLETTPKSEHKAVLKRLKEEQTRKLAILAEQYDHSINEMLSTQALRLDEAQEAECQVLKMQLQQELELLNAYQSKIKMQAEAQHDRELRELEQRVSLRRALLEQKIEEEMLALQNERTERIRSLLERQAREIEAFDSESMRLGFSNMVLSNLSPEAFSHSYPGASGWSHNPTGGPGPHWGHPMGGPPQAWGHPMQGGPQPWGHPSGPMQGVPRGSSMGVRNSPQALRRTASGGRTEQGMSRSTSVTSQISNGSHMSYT

Row | Compound | Activity [1] [%] | Activity [2] [%] | Activity [3] [%] | Activity [4] [%] | Activity [5] [%]
1 | CC[C@H](Nc1ncnc2[nH]cnc12)c1nc2cccc(F)c2c(=O)n1-c1ccccc1 | 106 | 102 | 95.7 | 96 | 101
2 | C[C@H](Nc1ncnc2nc[nH]c12)c1cc2cccc(Cl)c2c(=O)n1-c1ccccc1 | 110 | 94.5 | 100 | 96.6 | 97.9
3 | CC(C)Oc1ccc(-c2nn([C@@H](C)c3oc4ccc(F)cc4c(=O)c3-c3cccc(F)c3)c3ncnc(N)c23)cc1F [UMBRALISIB] | 104 | 97.3 | 92 | 95.6 | 92.9

— ChEMBL document CHEMBL5715954, “Silencing c-Myc translation as a therapeutic strategy through targeting PI3Kδ and CK1ε in hematological malignancies” (Blood, 2017)
